For 29 compounds, IC50 results are on record in patent US20240366598A1, “GLUCOSE-DEPENDENT INSULINOTROPIC POLYPEPTIDE RECEPTOR ANTAGONISTS AND USES THEREOF” (Pfizer Inc., priority 2023, published 2024).

Broadly, the IC50 is the concentration at which inhibition is half-maximal.

This assay concerns the target T1, human Glucose-dependent Insulinotropic Polypeptide Receptor (hGIPR) (Homo sapiens, UniProt P48546).
T1 sequence (P48546 22-466): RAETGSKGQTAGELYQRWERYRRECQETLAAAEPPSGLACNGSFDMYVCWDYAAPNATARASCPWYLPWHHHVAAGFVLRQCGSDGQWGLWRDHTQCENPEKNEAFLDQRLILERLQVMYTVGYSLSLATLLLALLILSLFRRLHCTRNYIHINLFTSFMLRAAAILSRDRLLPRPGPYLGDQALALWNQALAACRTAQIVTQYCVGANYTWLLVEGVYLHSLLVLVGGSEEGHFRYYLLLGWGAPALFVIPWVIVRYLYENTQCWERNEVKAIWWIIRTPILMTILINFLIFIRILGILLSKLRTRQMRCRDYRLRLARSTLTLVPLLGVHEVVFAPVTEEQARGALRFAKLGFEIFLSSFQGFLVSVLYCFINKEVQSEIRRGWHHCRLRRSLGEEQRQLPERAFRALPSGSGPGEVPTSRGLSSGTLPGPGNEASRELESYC
The experiment in a line: Functional in vitro GIPR antagonist potency assay (cAMP HTRF, CHO-K1 cells stably expressing hGIPR, hGIP stimulation at about EC80). It is filed as cell-based. Conditions: geometric mean, hGIP at estimated EC80, examples marked ^2: overall geometric mean of multiple forms (including salts) tested. A digest of the protocol:
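CHO-K1 cells expressing hGIPR (2,000 per well) in HBSS/HEPES/0.1% BSA with 200 μM IBMX were preincubated 2 h at 37 °C with an 11-point compound series (0.5% DMSO). hGIP at about EC80 was then added for 30 min, and cAMP was read by HTRF (665/620 nm). Data were normalized between hGIP alone and full antagonism by a reference antagonist at 80 μM.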
Consider `Cc1cc(NC(=O)N2CCC[C@@H]2C(=O)Nc2ccc(-c3ccc(C(=O)O)nc3C)cc2)ccc1C(F)(F)F` [Example 167, 6-methyl-5-{4-[(1-{[3-methyl-4-(trifluoromethyl)phenyl]carbamoyl}-D-prolyl)amino]phenyl}pyridine-2-carboxylic acid], for which the half-inhibitory concentration (IC50) is 0.0072 µM.

In the case of `Cc1cc(NC(=O)N2CCC[C@@H]2C(=O)Nc2ccc(-c3ccc(C(=O)O)nc3C)cc2)ccc1C(C)C` [Example 168, 6-methyl-5-{4-[(1-{[3-methyl-4-(propan-2-yl)phenyl]carbamoyl}-D-prolyl)amino]phenyl}pyridine-2-carboxylic acid], the IC50 is 0.015 µM.

On to `Cc1nc(C(=O)O)ccc1-c1ccc(NC(=O)[C@H]2CCCN2C(=O)Nc2ccc(C(F)(F)F)cc2)cc1` [Example 169, 6-methyl-5-{4-[(1-{[4-(trifluoromethyl)phenyl]carbamoyl}-D-prolyl)amino]phenyl}pyridine-2-carboxylic acid], for which the half-inhibitory concentration (IC50) is 0.049 µM.

For the compound `COc1cc(-c2ccc(NC(=O)[C@H]3CCCN3C(=O)Nc3ccc(C(F)(F)F)cc3)cc2)ccc1C(=O)O` [Example 170, 3-methoxy-4′-[(1-{[4-(trifluoromethyl)phenyl]carbamoyl}-D-prolyl)amino][1,1′-biphenyl]-4-carboxylic acid], the IC50 was 0.04 µM. In the case of `Cc1cc(C(=O)O)ccc1-c1ccc(NC(=O)[C@H]2CCCN2C(=O)Nc2ccc(C(C)C)cc2)nc1` [Example 171, 3-methyl-4-{6-[(1-{[4-(propan-2-yl)phenyl]carbamoyl}-D-prolyl)amino]pyridin-3-yl}benzoic acid] it was 0.016 µM. Take `Cc1cc(C(=O)O)ccc1-c1ccc(NC(=O)[C@H]2CCCN2C(=O)Nc2ccc(C(F)(F)F)cc2)nc1` [Example 172, 3-methyl-4-{6-[(1-{[4-(trifluoromethyl)phenyl]carbamoyl}-D-prolyl)amino]pyridin-3-yl}benzoic acid]: the IC50 is 0.031 µM. In the case of `Cc1cc(C(=O)O)ccc1-c1ccc(NC(=O)[C@H]2CCCN2C(=O)Nc2ccc(C(C)C)c(C)c2)nc1` [Example 173, 3-methyl-4-{6-[(1-{[3-methyl-4-(propan-2-yl)phenyl]carbamoyl}-D-prolyl)amino]pyridin-3-yl}benzoic acid] it was 0.0044 µM; in that of `Cc1cc(NC(=O)N2CCC[C@@H]2C(=O)Nc2ccc(-c3ccc(C(=O)O)nc3)cc2)ccc1C1CC1` [Example 174, 5-[4-({1-[(4-cyclopropyl-3-methylphenyl)carbamoyl]-D-prolyl}amino)phenyl]pyridine-2-carboxylic acid], 0.049 µM.

In the case of `Cc1cc(NC(=O)N2CCC[C@@H]2C(=O)Nc2ccc(-c3cccc(C(=O)O)c3)cn2)ccc1C(F)(F)F` [Example 175, 3-{6-[(1-{[3-methyl-4-(trifluoromethyl)phenyl]carbamoyl}-D-prolyl)amino]pyridin-3-yl}benzoic acid], the IC50 was 0.0083 µM. The result for `Cc1cc(C(=O)O)ccc1-c1ccc(NC(=O)[C@H]2CCCN2C(=O)Nc2ccc(C(C)C)c(F)c2)nc1` [Example 176, 4-{6-[(1-{[3-fluoro-4-(propan-2-yl)phenyl]carbamoyl}-D-prolyl)amino]pyridin-3-yl}-3-methylbenzoic acid] reads 0.011 µM; that for `Cc1cc(NC(=O)N2CCC[C@@H]2C(=O)Nc2ccc(-c3ccc(C(=O)O)cc3)cn2)ccc1C(F)(F)F` [Example 177, 4-{6-[(1-{[3-methyl-4-(trifluoromethyl)phenyl]carbamoyl}-D-prolyl)amino]pyridin-3-yl}benzoic acid], 0.0082 µM; that for `O=C(O)c1ccc(-c2ccc(NC(=O)[C@H]3CCCN3C(=O)Nc3ccc(C4(C(F)(F)F)CC4)cc3)nc2)cc1` [Example 178, 4-(6-{[1-({4-[1-(trifluoromethyl)cyclopropyl]phenyl}carbamoyl)-D-prolyl]amino}pyridin-3-yl)benzoic acid], 0.011 µM. In the case of `Cc1cc(NC(=O)N2CCC[C@@H]2C(=O)Nc2ccc(-c3ccc(C(=O)O)cc3)cn2)ccc1C1CC1` [Example 179, 4-[6-({1-[(4-cyclopropyl-3-methylphenyl)carbamoyl]-D-prolyl}amino)pyridin-3-yl]benzoic acid] it was 0.0037 µM; in that of `Cc1cc(NC(=O)N2CCC[C@@H]2C(=O)Nc2ccc(-c3ccc(C(=O)O)cn3)cc2)ccc1C(C)C` [Example 180, 6-{4-[(1-{[3-methyl-4-(propan-2-yl)phenyl]carbamoyl}-D-prolyl)amino]phenyl}pyridine-3-carboxylic acid], 0.053 µM; in that of `O=C(O)c1cccc(-c2ccc(NC(=O)[C@H]3CCCN3C(=O)Nc3ccc(C(F)(F)F)cc3)nc2)c1` [Example 181, 3-{6-[(1-{[4-(trifluoromethyl)phenyl]carbamoyl}-D-prolyl)amino]pyridin-3-yl}benzoic acid], 0.024 µM.

For `CC(C)c1ccc(NC(=O)N2CCC[C@@H]2C(=O)Nc2ccc(-c3ccc(C(=O)O)cn3)cc2)cc1F` [Example 182, 6-{4-[(1-{[3-fluoro-4-(propan-2-yl)phenyl]carbamoyl}-D-prolyl)amino]phenyl}pyridine-3-carboxylic acid], the IC50 was 0.023 µM. With `Cc1cc(NC(=O)N2CCC[C@@H]2C(=O)Nc2ccc(-c3cccc(C(=O)O)c3)cn2)ccc1C(C)C` [Example 183, 3-{6-[(1-{[3-methyl-4-(propan-2-yl)phenyl]carbamoyl}-D-prolyl)amino]pyridin-3-yl}benzoic acid], the half-inhibitory concentration (IC50) was 0.0093 µM. Turning to `Cc1cc(NC(=O)N2CCC[C@@H]2C(=O)Nc2ccc(-c3cccc(C(=O)O)c3)cn2)ncc1C(C)C` [Example 184, 3-{6-[(1-{[4-methyl-5-(propan-2-yl)pyridin-2-yl]carbamoyl}-D-prolyl)amino]pyridin-3-yl}benzoic acid], the IC50 was 0.043 µM.

In the case of `Cc1cc(-c2ccc(NC(=O)[C@H]3CCCN3C(=O)Nc3ccc(C(C)C)c(C)c3)nc2)ccc1C(=O)O` [Example 185, 2-methyl-4-{6-[(1-{[3-methyl-4-(propan-2-yl)phenyl]carbamoyl}-D-prolyl)amino]pyridin-3-yl}benzoic acid], the IC50 is 0.0042 µM. `Cc1cc(NC(=O)N2CCC[C@@H]2C(=O)Nc2ccc(-c3ccc(C(=O)O)c(F)c3)cn2)ccc1C(F)(F)F` [Example 186, 2-fluoro-4-{6-[(1-{[3-methyl-4-(trifluoromethyl)phenyl]carbamoyl}-D-prolyl)amino]pyridin-3-yl}benzoic acid]: the half-maximal inhibitory concentration (IC50) is 0.036 µM. Take `Cc1cc(NC(=O)N2CCC[C@@H]2C(=O)Nc2ccc(-c3ccc(C(=O)O)c(F)c3)cn2)ccc1C(C)C` [Example 187, 2-fluoro-4-{6-[(1-{[3-methyl-4-(propan-2-yl)phenyl]carbamoyl}-D-prolyl)amino]pyridin-3-yl}benzoic acid]: the 50% inhibitory concentration (IC50) is 0.051 µM. The result for `O=C(O)c1cccc(-c2ccc(NC(=O)[C@H]3CCCN3C(=O)Nc3ccc(Cl)c(C(F)(F)F)c3)nc2)c1` [Example 188, 3-{6-[(1-{[4-chloro-3-(trifluoromethyl)phenyl]carbamoyl}-D-prolyl)amino]pyridin-3-yl}benzoic acid] reads 0.032 µM; that for `CC(C)c1ccc(CNC(=O)N2CCC[C@@H]2C(=O)Nc2ccc(-c3ccc(C(=O)O)c(F)c3)cn2)cc1` [Example 189, 2-fluoro-4-(6-{[1-({[4-(propan-2-yl)phenyl]methyl}carbamoyl)-D-prolyl]amino}pyridin-3-yl)benzoic acid], 0.042 µM; that for `Cc1cc(-c2ccc(NC(=O)[C@H]3CCCN3C(=O)NCc3ccc(C(F)(F)F)c(F)c3)nc2)ccc1C(=O)O` [Example 190, 4-(6-{[1-({[3-fluoro-4-(trifluoromethyl)phenyl]methyl}carbamoyl)-D-prolyl]amino}pyridin-3-yl)-2-methylbenzoic acid], 0.0099 µM.

As to `Cc1cc(-c2ccc(NC(=O)[C@H]3CCCN3C(=O)NCc3ccc(C(C)C)cc3)nc2)ccc1C(=O)O` [Example 191, 2-methyl-4-(6-{[1-{{[4-(propan-2-yl)phenyl]methyl}carbamoyl)-D-prolyl]amino}pyridin-3-yl)benzoic acid], the half-inhibitory concentration (IC50) was 0.014 µM.

For the compound `Cc1cc(-c2ccc(NC(=O)[C@H]3CCCN3C(=O)NCc3ccc(C(F)(F)F)cc3)nc2)ccc1C(=O)O` [Example 192, 2-methyl-4-(6-{[1-({[4-(trifluoromethyl)phenyl]methyl}carbamoyl)-D-prolyl]amino}pyridin-3-yl)benzoic acid], the IC50 was 0.012 µM.

For the compound `O=C(O)c1ccc(-c2ncc(NC(=O)[C@H]3CCCN3C(=O)Nc3ccc(C(F)(F)F)cc3)cc2F)cc1` [Example 193, 4-{3-fluoro-5-[(1-{[4-(trifluoromethyl)phenyl]carbamoyl}-D-prolyl)amino]pyridin-2-yl}benzoic acid], the half-maximal inhibitory concentration (IC50) is 0.017 µM. The result for `CC(C)c1ccc(NC(=O)N2CCC[C@@H]2C(=O)Nc2ccc(-c3ccc(C(=O)O)cc3)nc2)cc1F` [Example 194, 4-{5-[(1-{[3-fluoro-4-(propan-2-yl)phenyl]carbamoyl}-D-prolyl)amino]pyridin-2-yl}benzoic acid] reads 0.014 µM; that for `O=C(O)c1ccc(-c2ccc(NC(=O)[C@H]3CCCN3C(=O)NCc3ccc(C(F)(F)F)cc3)cc2)cn1` [Example 195, 5-(4-{[1-({[4-(trifluoromethyl)phenyl]methyl}carbamoyl)-D-prolyl]amino}phenyl)pyridine-2-carboxylic acid], 0.035 µM.
